Experimental data: patent US20100249402A1, “NOVEL BENZAMIDINE DERIVATIVES, PROCESS FOR THE PREPARATION THEREOF AND PHARMACEUTICAL COMPOSITION FOR PREVENTING OR TREATING OSTEPOROSIS COMPRISING THE SAME” (DONG WHA PHARMACEUTICAL CO. LTD., priority 2007, published 2010)
Like-named read-outs stand apart in the source and are kept apart here.

Key:
MC3T3-E1 = test: Cytotoxicity test (MTT), MC3T3-E1; assay type: cell-based; conditions: 10^−6 M, cultured for 72 hrs, in comparison with the control group
Procedure: (§1) The cytotoxic effect of the benzamidine derivative of the present invention was evaluated by carrying out the experiment described below.
(§2) The test substance was diluted in an appropriate solvent at a concentration of 10^−2 M. This substance was diluted in an appropriate culture medium for the cells used in the cytotoxicity test to a concentration of 10^−6M, and loaded into a 96-well plate in 100 μl per well. The cell lines to be used in the cytotoxicity test were plated on a 96-well plate in a dose of 1.0×10^4 cell/100 μl per well, and cultured for 72 hrs. 25 μl of MTT[3-(4,5-dimethyl-2-thiazolyl)-2,5-diphenyl-2H-tetrazolium bromide] dissolved in PBS (2 mg/mL) were added before 4 hrs of the end of culture. After completion of the reaction, the plates were centrifuged, the medium was discarded and 100 μl of DMSO was added to dissolve formazan. Finally, the absorbance of the developed plates was measured at 540 nm. The survival rates of the cells were expressed as % concentration values in comparison with the control group.

[1] = test system: osteoclast differentiation; test: Inhibitory effects on osteoclast differentiation (bone marrow cell/osteoblast co-culture, TRAP staining); assay type: cell-based, mice; conditions: for inhibition at 1 µM: Mus musculus, Osteoclast, 168 h, read-out: Inhibition of osteoclast differentiation (%)
Procedure: The effect of the benzamidine derivative of the present invention on osteoclast formation and differentiation process was evaluated via co-culture with an osteoblast.
Tibia was aseptically ectomized from 6 to 8-week-old male ddY mice to harvest bone marrow cells by using a syringe (21G, Korea Green Cross). The bone marrow cells were suspended in 5 mL of an α-MEM medium (Gibco BRL Co., supplemented with sodium bicarbonate (2.0 g/L), streptomycin (100 mg/L) and penicillin ([…]), filtered and then sterilized). The harvested cells were centrifuged at 600×g for 5 minutes to collect the whole quantity. To remove the red blood cells in the bone marrow cells, 3 mL of Tris HCl (0.83% NH4Cl, pH 7.5) was added and well mixed. After centrifugation, the numbers of the eukaryotic cells in the harvested bone marrow cells were counted, and then immediately used for a co-culture system.
The progenitor bone and the parietal bone were aseptically ectomized from 1 to 2-day-old neonatal ICR mice, washed with a phosphate butter solution (PBS), and treated with a mixed enzyme solution (0.2% collagenase and 0.1% dispase) six to seven times (10, 10, 10, 20, 20 and 20 min), and then 3 to 6 groups of the cells, in which a large volume of cells having osteoblastic characteristics were contained, were intensively collected, and washed with medium (serum-free α-MEM). The washed cells were cultured in the α-MEM medium containing 10% FBS for 2 to 3 days. After sub-culturing, the collected cells were used for this experiment, and diluted to a concentration of 1×10^6 cells/mL for storage at −70° C.
The benzamidine derivative of the present invention was dissolved in a sterile distilled water or ethanol to be diluted to a desired concentration. The final volume of the sample added to the cell culture medium was set at a ratio of 1:1000.
The bone marrow cells prepared in the above 1-1 and the osteoblast were co-cultured. Both the bone marrow cells (25,000 cells/cm^2) and the osteoblast (10,000 cells/cm^2) were plated in a 96-well plate using α-MEM medium containing FBS, and then cultured with the samples to be tested for 7 days. Differentiation factors, such as dexamethasone (10^−7 M) and vitamin D (10^−8 M), were also co-added to the medium from the first day of cultivation. The medium was changed with a fresh media containing a mixture of the samples and the differentiation factors every 2 to 3 days.
TRAP was used as a marker to measure the matured osteoclast in consideration of its characteristics showing a positive reaction to a TRAP staining solution.
The TRAP staining solution was prepared in such the manner that 5 mg of naphthol AS-MS phosphate (sigma N-4875) as a substrate and 25 mg of a coloring agent (Fast Red Violet LB salt) were dissolved in N,N-dimethylformamide (about 0.5 mL). 50 ml of a 0.1 N […] buffer solution containing 50 mM tartaric acid (pH 5.0) was added thereto, and the mixture was stored in a refrigerator prior to use as a staining solution.
After culturing the cells for 7 days, the medium was removed from the wells, the cells were once washed with PBS, and then fixed with PBS containing 10% formalin for 2 to 5 min. The cells were fixed again in a mixed solution of ethanol and acetone (1/1) for about 1 min, and dried off. The cells were further treated by the TRAP staining solution for 15 minutes, and washed with water and dried off. The osteoclasts with 3 or more nuclei showing a TRAP-positive reaction were counted under a microscopic examination. Each of tests was confirmed at least three times. The inhibitory effect on osteoclast differentiation of each experimental group, relative to negative controls, was expressed as a percentage (%).

HOS = test: Cytotoxicity test (MTT), HOS; assay type: cell-based; conditions: 10^−6 M, cultured for 72 hrs, in comparison with the control group
Procedure: as §1, §2

calvaria = test: Cytotoxicity test (MTT), calvaria; assay type: cell-based; conditions: 10^−6 M, cultured for 72 hrs, in comparison with the control group
Procedure: as §1, §2

[2] = 1 μm, 7 days co-culture, TRAP-positive osteoclasts with 3 or more nuclei, relative to negative controls

Compound | Cell survival rate (MC3T3-E1) [%] | inhibition at 1 µM [1] [%] | Cell survival rate (HOS) [%] | Cell survival rate (calvaria) [%] | Inhibition of osteoclast differentiation (%) [1, 2] [%] | inhibition at 1 µM [1, 2] [%]
CN(CCO)c1nc(-c2ccc(OCCCCCOc3ccc(C(=N)NO)cc3)cc2)c(CN2CCOCC2)s1 [Example 25, N-hydroxy-4-[5-(4-{2-[(2-hydroxy-ethyl)-methyl-amino]-5-morpholin-4-ylmethyl-thiazol-4-yl}-phenoxy)-pentyloxy]-benzamidine] | 100 | 100 | 86 | 86 | – | –
COCCNCc1sc(N(C)CCN2CCOCC2)nc1-c1ccc(OCCCCCOc2ccc(C(=N)NO)cc2)cc1 [Example 33, N-hydroxy-4-[5-(4-{5-[(2-methoxy-ethylamino)-methyl]-2-[methyl-(2-morpholin-4-yl-ethyl)-amino]-thiazol-4-yl}-phenoxy)-pentyloxy]-benzamidine] | 104 | 100 | 110 | 94 | – | –
Cc1nc(-c2ccc(OCCCCCOc3ccc(C(=N)NO)cc3)cc2)c(CNCCCn2ccnc2)s1 [Example 18] | 99 | – | 106 | 94 | 100 | –
N=C(NO)c1ccc(OCCCCCOc2ccc(-c3nc(N)sc3N3CCOCC3)cc2)cc1 [Example 3, N-hydroxy-4-{5-[4-(2-amino-5-morpholin-4-yl-thiazol-4-yl)-phenoxy]-pentyloxy}-benzamidine] | 94.6 | – | 89.0 | 97.7 | – | 73.2
COCCN(CCOC)Cc1sc(N(C)CCN2CCOCC2)nc1-c1ccc(OCCCCCOc2ccc(C(=N)NO)cc2)cc1 [Example 30, N-hydroxy-4-[5-(4-{5-{[bis-(2-methoxy-ethyl)-amino]-methyl}-2-[methyl-(2-morpholin-4-yl-ethyl)-amino]-thiazol-4-yl}-phenoxy)-pentyloxy]-benzamidine] | 105 | 93 | 107 | 103 | – | –
CN(CCN1CCOCC1)c1nc(-c2ccc(OCCCCCOc3ccc(C(=N)NO)cc3)cc2)c(CN2CCSCC2)s1 [Example 29, N-hydroxy-4-[5-(4-{2-[methyl-(2-morpholin-4-yl-ethyl)-amino]-5-thiomorpholin-4-ylmethyl-thiazol-4-yl}-phenoxy)-pentyloxy]-benzamidine] | 109 | 97 | 109 | 99 | – | –
CN(C)c1sc(-c2ccccc2)nc1-c1ccc(OCCCCCOc2ccc(C(=N)NO)cc2)cc1 [Example 42, N-hydroxy-4-{5-[4-(5-dimethylamino-2-phenyl-thiazol-4-yl)-phenoxy]-pentyloxy}-benzamidine] | 91 | – | 100 | 98 | – | 49
Cc1nc(-c2ccc(OCCCCCOc3ccc(C(=N)NO)cc3)cc2)c(NC(=O)c2cccnc2)s1 [Example 39, N-hydroxy-4-[5-(4-{2-methyl-5-[(pyridine-3-carbonyl)-amino]-thiazol-4-yl}-phenoxy)-pentyloxy]-benzamidine] | 95.0 | – | 92.1 | 86.3 | – | 65.5
CCCNCc1sc(C)nc1-c1ccc(OCCCCCOc2ccc(C(=N)NO)cc2)cc1 [Example 16, N-hydroxy-4-{5-[4-(2-methyl-5-propylaminomethyl-thiazol-4-yl)-phenoxy]-pentyloxy}-benzamidine] | 92 | 100 | 100 | 95 | – | –
Cc1nc(-c2ccc(OCCCCCOc3ccc(C(=N)NO)cc3)cc2)c(N2CCOCC2)s1 [Example 1, N-hydroxy-4-{5-[4-(2-methyl-5-morpholin-4-yl-thiazol-4-yl)-phenoxy]-pentyloxy}-benzamidine] | 85.9 | – | 105.6 | 91.5 | – | 94
Cc1nc(-c2ccc(OCCCCCOc3ccc(C(=N)NO)cc3)cc2)c(CNCCN2CCOCC2)s1 [Example 17, N-hydroxy-4-[5-(4-{2-methyl-5-[(2-morpholin-4-yl-ethylamino)-methyl]-thiazol-4-yl}-phenoxy)-pentyloxy]-benzamidine] | 103 | 100 | 99 | 93 | – | –
N=C(NO)c1ccc(OCCCCCOc2ccc(-c3nc(-c4ccccc4)sc3N)cc2)cc1 [Example 45, N-hydroxy-4-{5-[4-(5-amino-2-phenyl-thiazol-4-yl)-phenoxy]-pentyloxy}-benzamidine] | 81 | – | 104 | 83 | – | 91
N=C(NO)c1ccc(OCCCCCOc2ccc(-c3nc(-c4cccnc4)sc3N)cc2)cc1 [Example 47, N-hydroxy-4-{5-[4-(5-amino-2-pyridin-3-yl-thiazol-4-yl)-phenoxy]-pentyloxy}-benzamidine] | 97 | – | 112 | 99 | – | 86
N=C(NO)c1ccc(OCCCCCOc2ccc(-c3nc(N4CCOCC4)sc3N3CCSCC3)cc2)cc1 [Example 6, N-hydroxy-4-{5-[4-(2-morpholin-4-yl-5-thiomorpholin-4-yl-thiazol-4-yl)-phenoxy]-pentyloxy}-benzamidine] | 90 | 92 | 92 | 106 | – | –
Cc1nc(-c2ccc(OCCCCCOc3ccc(C(=N)NO)cc3)cc2)c(N(C)C)s1 [Example 41] | 91 | – | 107 | 93 | 94 | –
